# Publication PMC8645223, “Development of a simple and miniaturized sandwich-like fluorescence polarization assay for rapid screening of SARS-CoV-2 main protease inhibitors” (Cell & Bioscience, 2021)
# Columns and labels:
# SARS-CoV-2 Mpro [1] = target: T1, SARS-CoV-2 Mpro (Severe acute respiratory syndrome coronavirus 2, UniProt P0DTD1); assay: sandwich-like FP screening assay; assay type: biochemical
# SARS-CoV-2 Mpro [2] = target: T1, SARS-CoV-2 Mpro; assay: SPR binding assay
# Experimental: The binding affinity between dieckol and Mpro was measured using a real-time SPR spectroscopy instrument (Reichert 2SPR, Buffalo, USA). In all, 20 µL Mpro (1.6 mg/mL) in 10 mM NaAc buffer (pH5.5) was immobilized to a surface activated CM5 gold biosensor (Reichert Inc., New York, USA), and the active sites were quenched with 1 M ethanolamine buffer (pH8.0). After washing the sample loop, an indicated concentration of dieckol (0, 6.25, 12.5, 25 µM) was separately injected on the surface of the Mpro-captured biosensor at RT. The binding time of the analyte to the ligand was 90 s, and the dissociation kinetic was recorded during 330 s. Finally, the real RIU was continuously monitored, and the RIU can be related to arbitrary resonance unit (RU) as 1 µRIU = 0.733 RU. The KD value was calculated using the analyte binding kinetic curve plotted by Trace Drawer software (Ridgeview Instruments, Sweden).
# SARS-CoV-2 Mpro [3] = target: T1, SARS-CoV-2 Mpro; assay: FRET assay, inhibition of Mpro proteolytic activity; assay type: biochemical; details: for IC50: IC50, FRET assay
# Experimental: As described previously, the inhibitory activity of dieckol against Mpro was preformed using a FRET assay. In brief, 50 µL sample of Mpro (0.4 µM) was preincubated with the indicated concentrations of dieckol (initial concentration: 100 µM, 8 two-fold dilutions) at RT for 35 min in FP assay buffer, and the reaction was initiated by adding 5 µM FRET substrate. DMSO and GC-376 (1 µM) was used as a negative and positive control, respectively. The RFU change was separately measured as described previously every second for 3 min by a microplate reader. The VI was calculated by a slope of the linear regression in the first 30 s, and the IC50 value was calculated using the following equation:3 Dieckolinhibition(%)=1-VIDieckol/VIDMSO×100%
# To clarify the inhibitory mechanism of dieckol, the fixed concentrations of dieckol (0, 2, 4, 6 µM) were separately added to 50 µL sample of Mpro (0.4 µM), and the mixture was preincubated for 10 min at RT. After adding 5 µM FRET substrate, the VI was measured using a FRET assay. The inhibition mechanism of dieckol was inferred using the LB plot and a Ki value was generated by its secondary plot.
# [4] = tested on: COc1ccc2c(CC(=O)N[C@@H](C)C(=O)N[C@H](C(=O)N[C@@H](CC(C)C)C(=O)N[C@@H](CCC(N)=O)C(=O)N[C@@H](CO)C(=O)NCC(=O)N[C@@H](Cc3ccccc3)C(=O)N[C@@H](CCCNC(=N)N)C(=O)N[C@@H](CCCCNc3ccc([N+](=O)[O-])cc3[N+](=O)[O-])C(=O)N[C@@H](CCCCN)C(N)=O)C(C)C)cc(=O)oc2c1; assay: purified protein, by the assay type; details: pH 8.0
Compound,IC50 (SARS-CoV-2 Mpro [1]; absence of DTT) [µM],IC50 (SARS-CoV-2 Mpro [1]; presence of 1 mM DTT) [µM],Kd (SARS-CoV-2 Mpro [2]) [nM],kd (SARS-CoV-2 Mpro [2]; SPR dissociation rate) [s⁻¹],Ki (SARS-CoV-2 Mpro [3]) [µM],IC50 (SARS-CoV-2 Mpro [3]; absence of DTT) [nM],IC50 (SARS-CoV-2 Mpro [3]; presence of 1 mM DTT) [nM],"inhibition mechanism (SARS-CoV-2 Mpro [3]; Lineweaver-Burk plot, same Vmax, varying Km)",Km [4] [µM]
Oc1cc(O)cc(Oc2c(O)cc(O)c3c2Oc2c(O)cc(Oc4c(O)cc(Oc5c(O)cc(O)c6c5Oc5c(O)cc(O)cc5O6)cc4O)cc2O3)c1 [dieckol],2.9 ± 0.2,4.5 ± 0.4,220,0.000226,3.3,1800 ± 200,3800 ± 300,competitive inhibitor,–
SARS-CoV-2 Mpro (Severe acute respiratory syndrome coronavirus 2),–,–,–,–,–,–,–,–,19.78
